The values that follow come from PubChem BioAssay (NCI).

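Five compound concentrations were applied to cells in 96-well plates for 48 hours; endpoints were derived by simple linear interpolation of the resulting dose-response curve. Here, GI50 denotes the concentration required for 50% inhibition of growth. The concentration for full growth arrest is given as TGI.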 A value given as a limit tells only on which side of the number the result lay.

Holding throughout (assay): NCI anticancer screen, dose series, 48 h
The test system of experiment [1] is ACHN renal.
Experiment [2] has as its system HOP-62 NSCLC.
Experiment [3] has as its system MOLT-4 leukemia.
Experiment [4] has as its system OVCAR-3 ovarian.
Experiment [5] concerns OVCAR-5 ovarian.
The test system of experiment [6] is SF-295 CNS.
Experiment [7] relates to SNB-75 CNS.
For experiment [8], the system named is SW-620 colon.
Experiment [9] has as its system RXF 393 renal.
Experiment [10] concerns NCI/ADR-RES ovarian.

For `O=C(CN(Cc1ccccc1)Cc1ccccc1)N1CCc2c([nH]c3ccccc23)C1c1cccnc1` (stereo not drawn), the TGI in experiment [1] was over 100 µM; in experiment [2] it was over 100 µM; in experiment [3], 6.88 µM; in experiment [4] it was 34 µM; in [5], 34.7 µM; in [6] it was over 100 µM. Further, the results for the TGI in experiment [7] and in experiment [8] were 81.9 µM and over 100 µM, respectively.
With `O=C(O)CCC(=O)Oc1ccc(O)c2c1CCCC2=O`, the TGI in experiment [1], in [2], in [3], in experiment [4], in experiment [5] and in [9] was over 100 µM in each case. For the same molecule, the TGI in experiment [6], in experiment [7] and in experiment [8] was over 100 µM each time.
With `N#CC(C#N)=Cc1ccc(C(O)P(=O)(O)O)cc1` (stereo not drawn), the TGI in [1], in [2], in experiment [3], in experiment [4], in [5] and in [6] was over 100 µM in each case. In experiment [8], the TGI was over 100 µM.
Turning to `O=C1Nc2ccc(O)cc2/C1=C\c1ccncc1`, the GI50 was 11.7 µM in experiment [1]; 23.9 µM in experiment [2]; 23.7 µM in experiment [10]; 13.3 µM in experiment [4]; 27.2 µM in [5]; 25.9 µM in experiment [6]. Moreover, the GI50 in experiment [8] is 25.5 µM. In addition, the TGI in experiment [1] turned out to be 27.9 µM; in experiment [2], 56.4 µM; in [10], 60.1 µM; in experiment [4], 41 µM; in [5], 57 µM; in experiment [6] it was 77.8 µM. Besides, the TGI in [8] was determined as 58.3 µM.
Consider `COC(=O)C(=O)C(C#N)c1cccc(Cl)c1` (stereo not drawn), for which the TGI in [1], in experiment [2], in [3], in [4], in experiment [5] and in experiment [9] was over 100 µM throughout. The TGI in experiment [6], in experiment [7] and in experiment [8] was over 100 µM throughout.
As for `CC12CCCC(C#N)(C1)OC2=O` (stereo not drawn), the TGI in experiment [1], in experiment [2], in experiment [3], in [4], in [5] and in experiment [9] was over 100 µM in each case. Further, the TGI in experiment [6], in experiment [7] and in experiment [8] was over 100 µM throughout.
As to `O=C1c2cccc([N+](=O)[O-])c2C(=O)c2nccnc21`, the TGI came to 15.1 µM in experiment [1]; 5.22 µM in experiment [3]; 3.88 µM in experiment [4]; 9.6 µM in [5]; 3.71 µM in [9]; 3.5 µM in experiment [6]. For the same molecule, the TGI came out at 2.35 µM in [7] and 3.92 µM in experiment [8].
For `c1ccc(COCC[P+](c2ccccc2)(c2ccccc2)c2ccccc2)cc1`, the GI50 in experiment [1] is 4.56 µM; in experiment [2] it was 3.59 µM; in experiment [3], 2100 nM; in experiment [10], 19.7 µM; in experiment [4], 1.07 µM; in [5], 2.85 µM. The figures for the GI50 in experiment [6], in experiment [7] and in experiment [8] were 1.39 µM, 1440 nM and 1.83 µM, respectively. The TGI was 23.5 µM in [1]; 32.4 µM in experiment [2]; 12.4 µM in [3]; 57.1 µM in experiment [10]; 17.8 µM in experiment [4]; over 100 µM in experiment [5]. In addition, the TGI in experiment [6] is 6.64 µM; in experiment [7], 6.76 µM; in experiment [8], 37.7 µM.
As for `O=C[C@]12CC=C3OC4OC5(CCCCC5)OC4[C@H]3[C@H]1C(=O)C=CC2=O` (stereo partly drawn), the TGI in experiment [1] is 58.5 µM; in experiment [2] it was over 100 µM; in experiment [3], 15.3 µM; in [5], over 100 µM; in experiment [9], 25.9 µM; in experiment [6], over 100 µM. Also, in experiment [8], the TGI worked out at 38.9 µM.
Consider `CCOC(=O)NC(=O)c1cn(CCCCCCCCCCC(=O)NCCCN2CCN(CCCNC(=O)CCCCCCCCCCn3cc(C(=O)NC(=O)OCC)c(=O)[nH]c3=O)CC2)c(=O)[nH]c1=O`, for which the TGI was over 100 µM in [1]; over 10 µM in experiment [2]; over 100 µM in experiment [3]; over 10 µM in [4]; over 100 µM in experiment [5]; over 100 µM in experiment [6]. For the same molecule, the TGI in experiment [7] and in [8] was over 100 µM throughout.
On to `O=CC1CCC=CC1NC(=O)OCc1ccccc1` (stereo not drawn), for which the TGI in experiment [1], in [2], in [3], in experiment [5], in [9] and in experiment [6] was over 100 µM each time. Further, the TGI was 94.3 µM in [7] and over 100 µM in experiment [8].
For `Cn1nc(-c2ccccc2)c2c(/C=C/c3ccc(Cl)cc3)onc2c1=O`, the TGI in [1] is over 100 µM; in experiment [3], over 100 µM; in [9], over 100 µM; in experiment [6], 68.8 µM; in experiment [8], over 100 µM.
Consider `CN1C(c2ccccc2)CC(C)(O)CC1c1ccccc1` (stereo not drawn), for which the TGI in experiment [1], in experiment [2], in experiment [3], in experiment [4], in [5] and in experiment [9] was over 100 µM throughout. The TGI in experiment [6], in experiment [7] and in experiment [8] was over 100 µM throughout.
As to `O=C1C(Cl)=C(Cl)C(=O)N1c1ccccc1Cl`, the TGI is over 100 µM in experiment [1]; over 100 µM in [2]; over 78.5 µM in experiment [3]; over 100 µM in [4]; over 100 µM in experiment [5]; over 100 µM in experiment [9]. The TGI in [6] was over 100 µM; in experiment [7], over 100 µM; in experiment [8], over 95 µM.
